This is an account of results in ChEMBL document CHEMBL1155704, “Acetylated analogues of the microtubule-stabilizing agent discodermolide: preparation and biological activity” (J Nat Prod, 2001).

The term IC50 denotes the point on the concentration scale where inhibition reaches its midpoint. A high value points to weaker potency.

This test deals with P388. Briefly: Cytotoxicity against mouse P388 cells after 48 hrs by MTT assay. The note with it: P388, 48 h. Format: functional, cell-based. (Formazan colour is commonly taken as a measure of viable cells.)
On to `C=C/C=C\[C@H](C)[C@H](OC(N)=O)[C@@H](C)[C@H](O)[C@@H](C)C/C(C)=C\[C@H](C)[C@@H](O)[C@@H](C)/C=C\[C@H](C[C@@H]1OC(=O)[C@H](C)[C@@H](O)[C@H]1C)OC(C)=O`, for which the concentration for half-maximal inhibition (IC50) came out at 3.9 nM.
The figure for `C=C/C=C\[C@H](C)[C@H](OC(N)=O)[C@@H](C)[C@H](O)[C@@H](C)C/C(C)=C\[C@H](C)[C@@H](OC(C)=O)[C@@H](C)/C=C\[C@H](C[C@@H]1OC(=O)[C@H](C)[C@@H](OC(C)=O)[C@H]1C)OC(C)=O` is 166 nM; for `C=C/C=C\[C@H](C)[C@H](OC(N)=O)[C@@H](C)[C@H](O)[C@@H](C)C/C(C)=C\[C@H](C)[C@@H](O)[C@@H](C)/C=C\[C@@H](O)C[C@@H]1OC(=O)[C@H](C)[C@@H](OC(C)=O)[C@H]1C` it is 12.6 nM; for `C=C/C=C\[C@H](C)[C@H](OC(N)=O)[C@@H](C)[C@H](O)[C@@H](C)C/C(C)=C\[C@H](C)[C@@H](O)[C@@H](C)/C=C\[C@H](C[C@@H]1OC(=O)[C@H](C)[C@@H](OC(C)=O)[C@H]1C)OC(C)=O` it is 0.74 nM.
The figure for `C=C/C=C\[C@H](C)[C@H](OC(N)=O)[C@@H](C)[C@H](OC(C)=O)[C@@H](C)C/C(C)=C\[C@H](C)[C@@H](OC(C)=O)[C@@H](C)/C=C\[C@H](C[C@@H]1OC(=O)[C@H](C)[C@@H](OC(C)=O)[C@H]1C)OC(C)=O` is 837 nM; for `C=C/C=C\[C@H](C)[C@H](OC(N)=O)[C@@H](C)[C@H](OC(C)=O)[C@@H](C)C/C(C)=C\[C@H](C)[C@@H](O)[C@@H](C)/C=C\[C@H](C[C@@H]1OC(=O)[C@H](C)[C@@H](OC(C)=O)[C@H]1C)OC(C)=O` it is greater than 6920 nM.
`C=C/C=C\[C@H](C)[C@H](OC(N)=O)[C@@H](C)[C@H](O)[C@@H](C)C/C(C)=C\[C@H](C)[C@@H](OC(C)=O)[C@@H](C)/C=C\[C@@H](O)C[C@@H]1OC(=O)[C@H](C)[C@@H](OC(C)=O)[C@H]1C` came in with an IC50 of 103 nM.
The figure for `C=C/C=C\[C@H](C)[C@H](OC(N)=O)[C@@H](C)[C@H](OC(C)=O)[C@@H](C)C/C(C)=C\[C@H](C)[C@@H](O)[C@@H](C)/C=C\[C@@H](O)C[C@@H]1OC(=O)[C@H](C)[C@@H](OC(C)=O)[C@H]1C` is 1150 nM.
